From patent US20250186379A1, “METHODS AND AGENTS FOR DECREASING INSULIN RESISTANCE” (Whitehead Institute for Biomedical Research, priority 2021, published 2025) come the findings set out here.

The test system of assay [1] is insulin signaling proteins (IR, IRS1, AKT, ERK, GSK3). Description: Immunoblot of phosphorylated over total insulin signaling proteins in HepG2 cells. Format: cell-based, human. How it is done:
Cells were washed with ice-cold PBS and lysed in Cell Lytic M (Sigma-Aldrich C2978) supplemented with protease and phosphatase inhibitors (Sigma Aldrich, 11873580001 and 4906837001) directly on the wells. Lysates were placed into a 1.5 ml tube and mixed at 4° C. for 20 min and then centrifuged at 13,000 rpm for 15 min. Protein concentration was determined using a BCA Protein Assay Kit (Life Technologies, 23250) according to the manufacturer's instructions. Equal amounts of protein (5-50 μg per sample) were separated on 10% or 12% Bis-Tris gels in 5% XT MOPS running buffer (Bio-Rad Laboratories, 1610788) at 100V until dye front reached the end of the gel. Protein was then transferred to a 0.45 μM PVDF membrane (Millipore, IPVH00010) in ice cold transfer buffer (25 mM Tris, 192 mM glycine, 20% methanol) at 300 mA for 1 hour or 250 mA for 2 hours at 4° C. After the transfer, membranes were blocked in 5% non-fat milk (LabScientific, M0842) dissolved in TBST (2% Tris HCl pH 8.0, 1.3% 5M NaCl, 0.05% Tween 20) or 5% BSA (VWR, 102643-516) in 1×TBST for 15 min to 1 hour at room temperature shaking. Membranes were then incubated overnight at 4° C. in 1:1000 primary antibody in 5% non-fat milk in TBST or 5% BSA in TBST. BSA was used for immunoblotting phosphorylated proteins, otherwise milk was used. Membranes were then washed three times for 5 min in TBST shaking at room temperature prior to incubation in 1:10,000 secondary antibody in 5% non-fat milk in TBST for 1 hour at room temperature. This was followed by three 10-minute washes in TBST. Membranes were developed with ECL substrate (Thermo Scientific, 34080) and imaged using a CCD camera. Immunoblot quantification was performed using the “analyze gel” tool on Fiji/ImageJ v2.1.0/153c.
The following primary antibodies were used for WB: anti-phosphorylated insulin receptor (Abcam, ab60946 and Cell Signaling 3026), anti-insulin receptor beta (Cell Signaling, 23413; Bethyl, A303-712A or Cell Signaling, 3025), anti-insulin receptor alpha (Cell Signaling, 74118), anti-phosphorylated AKT (Cell Signaling, 4056), anti-AKT (Cell Signaling, 9272), anti-phosphorylated ERK (Cell Signaling, 4377), anti-ERK (Cell Signaling, 9102), anti-beta Actin (Sigma Aldrich, A5441). The following secondary antibodies were used: donkey anti-rabbit IgG (Cytiva Life Sciences, NA934-1ML) and sheep anti-mouse IgG (Sigma Aldrich, NXA931V).
Cells were washed with ice-cold PBS (Life Technologies, AM9625) and lysed in Cell Lytic M (Sigma Aldrich C2978) supplemented with protease and phosphatase inhibitors (Sigma Aldrich, 11873580001 and 4906837001) directly on the wells. Lysates were placed into a 1.5 ml tube and mixed at 4° C. for 20 minutes, sonicated and then centrifuged at 12,000×g for 15 minutes. Super natant was collected and protein concentration was determined using a BCA Protein Assay Kit (Life Technologies, 23250) according to the manufacturer's instructions. Equal amounts of protein (5-50 μg per sample) were separated on 10% or 12% Bis-Tris gels in 5% XT MOPS running buffer (Bio-Rad Laboratories, 1610788) at 100V until dye front reached the end of the gel. Protein was then transferred to a 0.45 μM PVDF membrane (Millipore, IPVH00010) in ice cold transfer buffer (25 mM Tris, 192 mM glycine, 20% methanol) at 300 mA for 1 hour or 250 mA for 2 hours at 4° C. After the transfer, membranes were blocked in either 5% non-fat milk (LabScientific, M0842) dissolved in TBST (2% Tris HCl pH 8.0, 1.3% 5M NaCl, 0.05% Tween 20) or 5% BSA (VWR, 102643-516) in 1×TBST for 15 minutes to 1 hour at room temperature with shaking. Membranes were then incubated overnight at 4° C. in 1:1000 primary antibody (specific antibodies listed below) in 5% non-fat milk in TBST or 5% BSA in TBST. BSA was used for immunoblotting phosphorylated proteins, otherwise milk was used. […]

Another assay has as its system SMAD7. Description: SMAD7 transcript levels (RNA-seq, RT-qPCR) in HepG2 cells. It counts as cell-based, human. How it is done:
RNA was extracted using TRIzol™ reagent following the manufacturer's instructions (Thermo Fisher Scientific, 15596026). cDNA synthesis was performed using qScript cDNA Supermix according to the manufacturer's instructions, using 1000 ng RNA as input (qScript cDNA SuperMix, QuantaBio—95048-500). qPCR was performed on a Thermo Fisher Scientific QuantStudio 6 machine using Fast SYBR™ Green Master Mix (Thermo Fisher Scientific 4385618). Expression data is presented after calculating the relative expression compared with the housekeeping gene RPLP0, using the equation Relative Quantification (RQ)=100/(2^(Target Gene Ct−RPLP0Ct). When data is reported relative to a sample condition, the condition of reference was set as 1 and the data of the other conditions were reported as a ratio (condition/condition of reference).
RNA sequencing was performed by the Whitehead Institute Genome Technology Core. Libraries were prepared using the KAPA HyperPrep stranded RNA kit following manufacturer's instructions. Samples were sequenced on a HiSeq2500 in High-Output mode generating 50 bases, single-end reads.
RNA-sequencing (RNA-seq) bioinformatics analysis was performed on the Whitehead High-Performance Computing Facility using the nf-core RNA-seq pipeline v1.4.2 (81) with Nextflow v20.04.1. Quality control of .fastq files was performed with FastQC v0.11.8. The reads were single-end and the strandedness was set to reverse. Low quality sequences were trimmed using Trim Galore!v0.6.4. Alignment was performed against the hg19 genome assembly using STAR v2.6.1d (85) and duplicates were marked using Picard MarkDuplicates v2.21.1. Quantification of transcripts using featureCounts v1.6.4 (86). Differential expression analysis was performed using edgeR v3.26.5 (87). deepTools v3.3.1 (88), dupRadar v1.14.0 (89), Qualimap v.2.2.2-dev (90), and MultiQC v1.7 were used for quality control. ERCC92 was used as RNA spike-in.
In general terms: Quantitative PCR measures a nucleic acid by following its amplification.

Where [2] appears, read: insulin-sensitive HepG2 cells, acute insulin stimulation.

Entries after “also recorded” stand apart in the source; their conditions may differ.

For “insulin: insulin (Sigma Aldrich, I9278-5ML) used for acute stimulation and chronic physiological or pathological exposure”, the “phosphorylation of GSK3 after insulin stimulation” value in assay [1] (cells exposed to pathologic levels (3 nM) of insulin for two days) is on record as “decreased phosphorylation of GSK3”. The “phosphorylation of insulin signaling proteins after insulin stimulation” value in assay [1] (cells exposed to pathologic levels (3 nM) of insulin for two days vs physiologic (0.1 nM)) is “reduced phosphorylation of IR, IRS1, AKT and ERK”. Besides, the GSK3 phosphorylation entry in assay [1] (insulin-sensitive HepG2 cells, 3 nM insulin 5 minutes) is reported as “increased GSK3 phosphorylation”. In addition, in assay [1] (setting [2]), the “AKT and ERK pathway activation” value was “stimulate; also recorded: AKT and ERK pathway activation”; the IR phosphorylation entry is “stimulate; also recorded: induced IR phosphorylation”. Besides, the SMAD7 gene expression entry in the assay with SMAD7 (insulin resistant cells, acute insulin stimulation) is on record as “nor did it cause upregulation of SMAD7 gene expression; also recorded: nor did it upregulate SMAD7 gene expression”. Also, in the assay with SMAD7 (insulin sensitive cells, before and after insulin stimulation (RNA-seq)), the SMAD7 expression entry is given as “upregulated”.

Regarding `CN(C)C(=N)N=C(N)N` [metformin, reference compound], the “IRS1 phosphorylation (pIRS1 over total IRS1, western blot)” value in assay [1] (insulin-resistant cells + metformin (FIG. 38)) is on record as “partial rescue of IRS1 phosphorylation; also recorded: partially rescues phosphorylation of IRS1”. In addition, the SMAD7 gene expression result in the assay on SMAD7 (metformin-treated insulin resistant cells) is “elevated”.
